Reference: patent publication US11813277B2, “Methods and agents for modulating inflammation” (The Regents of the University of California, priority 2018, dated 2023)

Experiments:
[1] = test system: Limonoids sigmodontis; experiment: Murine model of nematode infection; conditions: mouse, in vivo
[2] = test system: M(IL-4) polarization of BMDMs; experiment: Flow cytometry of IL-4-associated cell surface markers in BMDMs; format: cell-based, mouse
Method: (§1) For all gene expression and flow cytometry experiments described below, day 6 BMDM were plated at 3×10^5 cell/well in 12-well plates. The next day, cells were treated with appropriate compounds (and duration as indicated in figures and below) in DMEM supplemented with 5% FBS, 2 mM L-glutamine, 100 units/mL, 100 μg/mL penicillin/streptomycin, 500 μM of sodium pyruvate and 5% v/v conditioned media containing macrophage colony stimulating factor (M-CSF).
(§2) For flow cytometry experiments involving etomoxir (FIG. 1G, FIG. 2A, FIG. 2D, FIG. 3A, FIG. 3B, FIG. 3G, FIG. 3H): BMDMs were mock-treated (media replacement only) or treated with 20 ng/mL of IL-4±3 μM or 200 μM of etomoxir for 48 hr. When measuring expression of M(IL-4)-associated genes in response to etomoxir (FIG. 1H, FIG. 2B), BMDMs were mock-treated or treated with 20 ng/mL of IL4±etomoxir as indicated for 24 hr.
(§3) For experiments involving respiratory chain inhibitors: BMDMs were mock-treated (media replacement only) or treated with 20 ng/mL of IL4±1.2 μM oligomycin (Oligo), 200 nM rotenone (Rot), 200 nM antimycin A (AntiA), 100 nM piericidin A (PierA), or 5 μM carboxyatractylate (CAT) for either 24 (FIG. 4G, FIG. 4H, FIG. 6G) or 48 hr (FIG. 4F, FIG. 7D). All inhibitors were given as co-treatments simultaneously with IL-4.
For experiments involving CoA supplementation (FIG. 10A, FIG. 10B, FIG. 10C, FIG. 10D, FIG. 10E, FIG. 9C, FIG. 9D): BMDMs were mock-treated (media replacement only) or treated with 20 ng/mL of IL4±etomoxir (concentration indicated in figures)±CoA (concentration indicated in figures) for 48 hr. Etomoxir and CoA were given as co-treatments simultaneously with IL-4.
Prior to FACS analysis, BMDMs were detached using 350 μL of Accutase, followed by two washes with FACS buffer (PBS+1% (v/v) BSA+0.05% (w/v) sodium azide). Anti-mouse CD16/32 antibody was used at a dilution of 1:500, while all other antibodies were used at a dilution of 1:250. All flow cytometry data were captured using BD FACSVerse flow cytometer and analyzed using the FlowJo X 10.0.7r2 software. In all, 2×104 live events were acquired for each sample (gated on DAPIneg). For analysis, CD206+/CD71+ and CD206+/CD301+ populations were gated based on Fluorescence Minus One (FMO) controls.

[3] = test system: acute liver injury; experiment: Murine acute liver injury model; format: in vivo
[4] = test system: BMDMs; experiment: Intracellular free coenzyme A levels in BMDMs; format: cell-based, mouse; conditions: IL-4
Method: On Day 6 of differentiation, BMDMs were seeded at 1.2×10^6 cells/well in 6-well plates. 24 hr later, BMDMs were mock-treated or co-treated with 20 ng/mL IL-4±200 μM etomoxir±500 μM CoA in DMEM supplemented with 5% FBS, 2 mM L-glutamine, 100 units/mL, […] penicillin/streptomycin, 500 μM of sodium pyruvate and 5% v/v conditioned media containing macrophage colony stimulating factor (M-CSF) for 20 hr. Prior to sample collections, cells were washed with 600 μL of 0.9% (w/v) NaCl twice. Three wells per replicate per treatment were combined in 2 mL centrifuge tubes and centrifuged at 500 g for 5 mins at 4° C. The supernatant was removed, and the cell pellet was re-suspended in 75 μL of ice-cold 0.7% (v/v) perchloric acid for 5 min. Samples were then centrifuged at 10,000 g for 7 mins at 4° C. and the resulting supernatant was adjusted to pH 7 with 2M NaOH and 500 mM K2HPO4. The coenzyme A concentration was determined with Coenzyme A Assay Kit following manufacturer's instructions (Sigma MAK034) using 40 μL of sample supernatant. Coenzyme A levels were normalized to total cellular protein (BCA method).

[5] = test system: BMDMs; experiment: Basal mitochondrial respiration in intact BMDMs; format: cell-based, mouse
Method: All respirometry studies were conducted in either a Seahorse XF96 or XFe96 Analyzer. All experiments were conducted at 37° C., and at pH 7.4 (intact cells) or 7.2 (permeabilized cells and isolated mitochondria). Calculation of respiratory parameters was made according to standard protocols (Divakaruni, A. S., Paradyse, A., Ferrick, D. A., Murphy, A. N., and Jastroch, M. (2014a) Analysis and interpretation of microplate-based oxygen consumption and pH data. Meth. Enzym 547, 509-54), and all rates were corrected for non-mitochondrial respiration/background signal by subtracting the oxygen consumption rate insensitive to rotenone plus antimycin A.
Respiration in intact BMDMs was measured in medium containing 8 mM glucose, 2 mM glutamine, 2 mM pyruvate, and 5 mM HEPES. Cells were plated at 5.0×10^4 cells/well and assayed after 48 hr. When measuring the response to IL-4, cells were treated with 20 ng/mL of IL-4 24 hr. after initial plating, and respiration was measured the following day (˜48 hr after initial seeding). […]

[6] = test system: diet-induced NASH; experiment: Rat model of diet-induced NASH; format: in vivo
[7] = test system: LCFA oxidation in BMDMs; experiment: 9,10-3H-palmitate oxidation (3H2O release) in BMDMs; format: cell-based, mouse; conditions: 200 nM rotenone or 200 nM antimycin A, IL-4-stimulated
Method: BMDMs at day 6 of differentiation were seeded at 3×10^5 cells/well in 12 well plates in BMDM media. The next day, cells were treated in DMEM containing 25 mM glucose supplemented with 5% FBS, 2 mM L-Glutamax, 100 units/mL, 100 μg/mL penicillin/streptomycin, 1 mM of sodium pyruvate, 1 mM carnitine, and 5% v/v conditioned media containing macrophage colony stimulating factor (M-CSF) under one of 5 conditions: control, 20 ng/mL of IL-4±3 μM or 200 μM of etomoxir, or 200 nM rotenone, or 200 nM antimycin A for 24 hr. Fatty acid oxidation was measured 24 hours later as previously described (Rognstad, R. (1991) Estimation of peroxisomal and mitochondrial fatty acid oxidation in rat hepatocytes using tritiated substrates. Biochem J 279:147-150, 1991; Cha, B. S., Ciaraldi, T. P., Park, K. S., Carter, L., Mudaliar, S. R., and Henry R R. (2005) Impaired fatty acid metabolism in type 2 diabetic skeletal muscle cells is reversed by PPARgamma agonists. Am J Physiol Endocrinol Metab. 289, E151-9) following a fluid change to DMEM with components as described above except 10 mM glucose and 0.2 μCi (final concentration of 5 μM) BSA-conjugated [9,10-3H]palmitic acid. No additional IL-4 was added at the time of this fluid change, but etomoxir, rotenone and antimycin A were added, and the plates were placed in a […] incubator at 37° C. for 3 hr. After incubation, a 100 μL aliquot of the culture medium was passed over an ion-exchange resin, and the column was washed twice with 0.75 ml of water. Free fatty acids were retained by the resin, whereas the tritium hydrolyzed from radiolabeled palmitate catabolism was released as labeled water, which passes freely through the resin, and is subsequently counted for radioactivity. All data are corrected for protein content in each well. There were 3 technical replicates for each condition, and 4 biological replicates arising from 4 separate animals.

[8] = test system: Relma, Mgl2, Ym1, Fabp4, Arg1 expression; experiment: qPCR of IL-4-associated genes in BMDMs; format: cell-based, mouse; conditions: IL-4, 24 hr
Method: as §1, §2, §3
RNA was isolated with TRIzol, then cDNA was synthesized with high-capacity cDNA reverse transcription kit. KAPA SYBR FAST qPCR Master Mix kit and a LightCycler 480 were used for quantitative RT-PCR. Fold change related to the control group was calculated using […] with 36b4 as the reference gene.

[9] = test system: BMDMs; experiment: Cellular ATP production rates from respirometry and lactate assay; format: cell-based, mouse; conditions: 200 nM rotenone, IL-4 24 hr
Method: Respiration in intact BMDMs was measured in medium containing 8 mM glucose, 2 mM glutamine, 2 mM pyruvate, and 5 mM HEPES. Cells were plated at 5.0×10^4 cells/well and assayed after 48 hr. When measuring the response to IL-4, cells were treated with 20 ng/mL of IL-4 24 hr. after initial plating, and respiration was measured the following day (˜48 hr after initial seeding). Respiration was measured in response to oligomycin (1 μM), FCCP (1.2 μM), and rotenone (0.2 μM) with antimycin A (1 μM).
Under conditions matching intact cell respirometry for BMDMs, the extracellular medium was harvested and lactate was analyzed as previously described (Mookerjee, S. A., Goncalves, R. L., Gerencser, A. A., Nicholls, D. G., and Brand, M. D. (2015). The contributions of respiration and glycolysis to extracellular acid production. Biochim et Biophys Acta. 1847, 171-81; Divakaruni, A. S., Wallace, M., Buren, C., Martyniuk, K., Andreyev, A. Y., Li, E., Fields, J. A., Cordes, T., Reynolds, I. J., Bloodgood, B. L., et al., (2017b) Inhibition of the mitochondrial pyruvate carrier protects from excitotoxic neuronal death. J. Cell Biol. 216, 1091-1105). […] The reaction velocity was measured after 2 min (340/460 nm excitation/emission). […]

[10] = 500 μM CoA, absence of etomoxir

CC(C)(COP(=O)(O)OP(=O)(O)OC[C@H]1O[C@@H](n2cnc3c(N)ncnc32)[C@H](O)[C@@H]1OP(=O)(O)O)[C@@H](O)C(=O)NCCC(=O)NCCS [CoA, [(2R,3S,4R,5R)-5-(6-aminopurin-9-yl)-4-hydroxy-3-phosphonooxy-oxolan-2-yl]methyl [hydroxy-[(3R)-3-hydroxy-2,2-dimethyl-4-oxo-4-[[3-oxo-3-(2-sulfanylethylamino)propyl]amino]butoxy]phosphoryl] hydrogen phosphate]
parasite burden and replication [1]: reduce parasite burden and replication
rescue of cell surface marker expression ([2]; 200 μM etomoxir, varying CoA): concentration-dependent function of exogenously added CoA
reduction of CD206+/CD71+ cells upon etomoxir treatment ([2]; 500 μM CoA with 200 μM etomoxir, IL-4): can be rescued
IL-4-induced expression of CD206 and CD71 [2, 10]: significantly increased
polarization ([2]; CoA, absence of IL-4): no effect on polarization
etomoxir-induced reduction in CD206+/CD71+ cells ([2]; LysM-Cre Cpt1a-/-, LysM-Cre Cpt2-/-, CD11c-Cre Cpt1a-/- BMDMs, 200 μM etomoxir, 500 μM CoA): could be rescued
healing time and resolution of injury ([3]; intravenous): decrease healing time and improve the extent of resolution from the injury
expression of alternative liver macrophage activation biomarkers ([3]; peritoneal macrophages and/or Kupffer cells): Increased expression
intracellular free CoA levels ([4]; 500 μM CoA with 200 μM etomoxir): could be restored
intracellular free CoA levels [4, 10]: significantly increased
basal respiration ([5]; CoA supplementation, BMDMs treated with excess etomoxir): did not alter basal respiration
oxygen consumption ([5]; CoA with IL-4): does not enhance oxygen consumption

CC(CNC(=O)[C@H](O)C(C)(C)CO)C(=O)NCCc1ccccc1 (stereo partly drawn) [alpha-methyl-N-phenethyl-pantothenamide]
expression of alternative macrophage activation biomarkers ([6]; Kupffer cells and/or myeloid-derived precursors from the liver): Decreased expression
inflammation and fibrosis in the liver ([6]; intravenous): reduce inflammation and fibrosis in the liver

C=C(C)[C@H]1Cc2c(ccc3c2O[C@@H]2COc4cc(OC)c(OC)cc4[C@@H]2C3=O)O1 [rotenone]
3H2O release from 9,10-3H-palmitate [7]: suppressed LCFA oxidation to levels in line with 200 μM etomoxir
population of CD206+/CD71+ cells ([2]; oxidative phosphorylation inhibitors co-treated with IL-4): none of the inhibitors of ATP synthesis or the electron transport chain significantly lowered
IL-4-induced expression of Relma, Ym1, Mgl2 ([8]; electron transport chain inhibitors): failed to reduce
expression of Ym1 and Arg1 ([8]; mitochondrial inhibitors): increased expression
ATP production from oxidative phosphorylation [9]: limited ATP production from oxidative phosphorylation
overall rates of energy metabolism (ATP production) [9]: maintain overall rates of energy metabolism
respiration at 24 hr ([5]; 1.2 μM oligomycin, 200 nM rotenone, 200 nM antimycin A, 100 nM piericidin A, 5 μM CAT): strongly reduced respiration
